According to ChEMBL document CHEMBL5126554, “Occurrence, synthesis and biological activity of 2-(2-phenyethyl)chromones” (Eur J Med Chem, 2022):

Experiments:
[1] = Antioxidant activity assessed as inhibition of DPPH radical scavenging activity by measuring reduction in absorbance at 100 uM by spectrophotometric analysis relative to control; assay type: functional
[2] = test system: RAW264.7; assay: Inhibition of NO production in LPS stimulated mouse RAW264.7 cells by Griess reagent based analysis; assay type: functional, cell-based
[3] = test system: Bel-7402; assay: Cytotoxicity against human Bel-7402 cells; assay type: functional, cell-based
[4] = target: Nuclear factor NF-kappa-B complex (Homo sapiens) (UniProt Q00653+P19838+Q04206); assay: Inhibition of LPS induced NF-kappaB activation (unknown origin) assessed as relative luciferase activity; assay type: protein-complex assay
Sequence of Nuclear factor NF-kappa-B complex (Homo sapiens) (P19838 whole entry, looked up): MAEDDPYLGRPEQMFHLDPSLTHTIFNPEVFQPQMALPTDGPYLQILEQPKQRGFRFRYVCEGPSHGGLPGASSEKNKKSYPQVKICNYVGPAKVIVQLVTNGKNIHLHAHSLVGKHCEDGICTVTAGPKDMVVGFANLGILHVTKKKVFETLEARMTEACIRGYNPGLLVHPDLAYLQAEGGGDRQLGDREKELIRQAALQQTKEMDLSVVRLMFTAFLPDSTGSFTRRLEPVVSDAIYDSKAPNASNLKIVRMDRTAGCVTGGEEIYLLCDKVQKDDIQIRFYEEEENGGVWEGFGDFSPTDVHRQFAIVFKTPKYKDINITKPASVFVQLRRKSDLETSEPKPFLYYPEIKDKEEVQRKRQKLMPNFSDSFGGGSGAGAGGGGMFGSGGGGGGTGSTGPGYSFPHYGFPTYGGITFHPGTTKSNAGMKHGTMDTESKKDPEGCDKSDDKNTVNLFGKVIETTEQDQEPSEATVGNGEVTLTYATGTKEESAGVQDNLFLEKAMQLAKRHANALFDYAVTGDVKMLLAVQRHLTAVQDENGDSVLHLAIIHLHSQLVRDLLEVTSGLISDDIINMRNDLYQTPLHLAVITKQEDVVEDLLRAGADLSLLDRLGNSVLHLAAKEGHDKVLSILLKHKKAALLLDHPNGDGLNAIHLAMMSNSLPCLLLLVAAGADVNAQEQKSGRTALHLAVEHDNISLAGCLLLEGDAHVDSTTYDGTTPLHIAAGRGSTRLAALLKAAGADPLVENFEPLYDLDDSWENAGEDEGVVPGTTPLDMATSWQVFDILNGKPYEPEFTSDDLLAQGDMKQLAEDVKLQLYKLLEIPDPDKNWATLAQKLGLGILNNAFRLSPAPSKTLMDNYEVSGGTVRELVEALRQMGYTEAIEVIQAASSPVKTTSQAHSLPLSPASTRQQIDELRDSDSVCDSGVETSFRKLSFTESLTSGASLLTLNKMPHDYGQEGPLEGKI
Sequence of Nuclear factor NF-kappa-B complex (Homo sapiens) (Q00653 whole entry, looked up): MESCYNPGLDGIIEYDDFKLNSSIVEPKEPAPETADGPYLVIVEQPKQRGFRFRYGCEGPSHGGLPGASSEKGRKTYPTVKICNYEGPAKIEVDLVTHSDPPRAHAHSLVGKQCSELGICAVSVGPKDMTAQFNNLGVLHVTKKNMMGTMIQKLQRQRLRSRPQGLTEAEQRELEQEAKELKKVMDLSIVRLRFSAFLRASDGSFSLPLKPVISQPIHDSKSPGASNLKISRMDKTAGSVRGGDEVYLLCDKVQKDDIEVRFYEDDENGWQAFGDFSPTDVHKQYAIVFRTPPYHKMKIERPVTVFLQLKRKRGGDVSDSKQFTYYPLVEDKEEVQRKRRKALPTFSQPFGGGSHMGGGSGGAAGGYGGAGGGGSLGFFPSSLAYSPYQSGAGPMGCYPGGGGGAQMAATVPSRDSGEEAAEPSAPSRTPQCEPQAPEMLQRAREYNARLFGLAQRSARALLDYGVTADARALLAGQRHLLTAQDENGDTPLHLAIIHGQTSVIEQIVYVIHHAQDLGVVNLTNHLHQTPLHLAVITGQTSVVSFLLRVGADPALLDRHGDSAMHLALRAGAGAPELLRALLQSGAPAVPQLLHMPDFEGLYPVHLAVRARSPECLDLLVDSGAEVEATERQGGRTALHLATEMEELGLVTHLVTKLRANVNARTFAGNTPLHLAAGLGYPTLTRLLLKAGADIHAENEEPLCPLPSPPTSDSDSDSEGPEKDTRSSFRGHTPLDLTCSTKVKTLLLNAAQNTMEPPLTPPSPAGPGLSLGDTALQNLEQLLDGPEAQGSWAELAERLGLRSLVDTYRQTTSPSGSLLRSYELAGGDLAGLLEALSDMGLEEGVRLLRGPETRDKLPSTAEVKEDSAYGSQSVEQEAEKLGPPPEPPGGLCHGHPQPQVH
Sequence of Nuclear factor NF-kappa-B complex (Homo sapiens) (Q04206 whole entry, looked up): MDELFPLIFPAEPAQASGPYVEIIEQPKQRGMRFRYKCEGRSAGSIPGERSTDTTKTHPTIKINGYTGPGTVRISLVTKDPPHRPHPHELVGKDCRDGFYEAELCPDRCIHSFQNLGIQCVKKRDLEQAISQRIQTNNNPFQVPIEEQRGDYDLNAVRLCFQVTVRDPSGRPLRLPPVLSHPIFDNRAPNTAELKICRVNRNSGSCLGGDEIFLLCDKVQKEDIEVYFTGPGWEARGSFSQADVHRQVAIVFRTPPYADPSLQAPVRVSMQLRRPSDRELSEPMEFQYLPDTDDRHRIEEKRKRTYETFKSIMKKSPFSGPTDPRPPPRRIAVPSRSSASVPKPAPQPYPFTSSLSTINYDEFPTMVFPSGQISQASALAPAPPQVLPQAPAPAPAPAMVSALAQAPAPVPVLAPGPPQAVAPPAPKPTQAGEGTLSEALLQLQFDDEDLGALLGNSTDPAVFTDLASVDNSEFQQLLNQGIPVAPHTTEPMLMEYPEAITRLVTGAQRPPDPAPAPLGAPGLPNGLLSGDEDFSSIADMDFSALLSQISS

[5] = target: cGMP-specific 3',5'-cyclic phosphodiesterase (Homo sapiens, UniProt O76074); assay: Inhibition of human recombinant PDE5A1 using FAM-cGMP as substrate incubated for 60 mins by fluorescence polarization method
[6] = target: cGMP-inhibited 3',5'-cyclic phosphodiesterase 3A (Homo sapiens, UniProt Q14432); assay: Inhibition of human recombinant PDE3A using FAM-cAMP as substrate incubated for 60 mins by fluorescence polarization method
Sequence of cGMP-inhibited 3',5'-cyclic phosphodiesterase 3A (Q14432 whole entry): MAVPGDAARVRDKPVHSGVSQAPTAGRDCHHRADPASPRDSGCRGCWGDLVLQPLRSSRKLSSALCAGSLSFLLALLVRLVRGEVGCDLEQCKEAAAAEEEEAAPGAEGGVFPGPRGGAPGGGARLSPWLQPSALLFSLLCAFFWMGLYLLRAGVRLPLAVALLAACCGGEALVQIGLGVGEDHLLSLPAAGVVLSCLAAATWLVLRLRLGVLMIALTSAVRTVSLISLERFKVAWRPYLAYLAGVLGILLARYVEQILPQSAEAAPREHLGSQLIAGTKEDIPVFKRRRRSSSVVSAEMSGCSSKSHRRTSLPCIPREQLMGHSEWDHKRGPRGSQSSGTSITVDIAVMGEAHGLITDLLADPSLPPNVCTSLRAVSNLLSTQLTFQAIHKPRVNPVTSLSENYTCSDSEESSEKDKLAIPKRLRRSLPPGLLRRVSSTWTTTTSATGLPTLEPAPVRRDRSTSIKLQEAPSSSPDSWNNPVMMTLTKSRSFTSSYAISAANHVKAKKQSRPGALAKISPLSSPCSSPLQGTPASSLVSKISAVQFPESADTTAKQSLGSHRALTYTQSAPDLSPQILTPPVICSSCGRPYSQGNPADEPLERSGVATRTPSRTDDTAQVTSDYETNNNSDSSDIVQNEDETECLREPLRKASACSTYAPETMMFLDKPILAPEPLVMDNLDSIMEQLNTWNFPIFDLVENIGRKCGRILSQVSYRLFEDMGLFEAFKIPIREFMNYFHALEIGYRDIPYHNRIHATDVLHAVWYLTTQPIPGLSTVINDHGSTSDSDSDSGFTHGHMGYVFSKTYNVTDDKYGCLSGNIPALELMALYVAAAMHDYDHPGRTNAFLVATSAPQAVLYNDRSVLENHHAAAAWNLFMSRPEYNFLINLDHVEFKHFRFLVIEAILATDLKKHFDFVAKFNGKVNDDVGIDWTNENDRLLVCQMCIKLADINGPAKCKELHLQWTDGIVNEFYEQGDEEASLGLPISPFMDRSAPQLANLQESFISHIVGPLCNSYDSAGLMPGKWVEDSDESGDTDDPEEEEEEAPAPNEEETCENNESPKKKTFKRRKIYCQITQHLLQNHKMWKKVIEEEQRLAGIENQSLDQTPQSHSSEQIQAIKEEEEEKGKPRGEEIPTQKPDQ

[7] = target: T1, Acetylcholinesterase (Homo sapiens, UniProt P22303); conditions: dose 50.0 mg/ml, time 1.0 hrs
T1 sequence (P22303 whole entry): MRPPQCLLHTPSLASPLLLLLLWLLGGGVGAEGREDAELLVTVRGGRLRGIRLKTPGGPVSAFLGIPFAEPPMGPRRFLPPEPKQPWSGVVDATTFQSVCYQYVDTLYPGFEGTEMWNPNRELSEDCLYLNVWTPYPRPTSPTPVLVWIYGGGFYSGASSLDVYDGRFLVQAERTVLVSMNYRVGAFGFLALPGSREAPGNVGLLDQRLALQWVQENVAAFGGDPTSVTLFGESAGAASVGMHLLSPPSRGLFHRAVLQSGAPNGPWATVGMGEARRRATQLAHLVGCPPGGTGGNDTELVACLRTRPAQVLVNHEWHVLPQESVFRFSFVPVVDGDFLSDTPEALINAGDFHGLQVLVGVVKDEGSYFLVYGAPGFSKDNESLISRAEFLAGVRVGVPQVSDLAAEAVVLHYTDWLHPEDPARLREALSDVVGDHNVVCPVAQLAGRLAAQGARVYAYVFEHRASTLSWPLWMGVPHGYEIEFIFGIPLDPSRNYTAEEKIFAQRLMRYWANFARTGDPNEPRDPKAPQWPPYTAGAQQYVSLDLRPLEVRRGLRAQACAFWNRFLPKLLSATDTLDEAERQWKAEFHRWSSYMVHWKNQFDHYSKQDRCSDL

[8] = target: T1, Acetylcholinesterase; assay: Inhibition of AChE (unknown origin) by spectrophotometric based Ellman's method
[9] = test system: K562; assay: Cytotoxicity against human K562 cells; assay type: functional, cell-based
[10] = test system: SGC-7901; assay: Cytotoxicity against human SGC-7901 cells; assay type: functional, cell-based
[11] = test system: Staphylococcus aureus; assay: Antibacterial activity against methicillin-resistant Staphylococcus aureus assessed as inhibition of bacterial growth incubated for 24 hrs by broth microdilution assay; assay type: functional, organism-based
[12] = test system: A549; assay: Cytotoxicity against human A549 cells by MTT assay; assay type: functional, cell-based
[13] = test system: HeLa; assay: Cytotoxicity against human HeLa cells; assay type: functional, cell-based
[14] = test system: A549; assay: Cytotoxicity against human A549 cells; assay type: functional, cell-based
[15] = target: Mushroom tyrosinase (Agaricus bisporus, UniProt O42713+Q00024+C7FF04+C7FF05); assay: Inhibition of mushroom tyrosinase activity using L-tyrosine as substrate preincubated for 5 mins followed by substrate addition and measured after 20 mins by microplate reader analysis

SMILES: O=c1cc(CCc2ccc(O)c(O)c2)oc2cc(O)cc(O)c12
- inhibition [1]: 91.2%

SMILES: COc1ccc(CCc2cc(=O)c3c(o2)[C@@H](O)[C@H](O)[C@@H]2O[C@H]32)cc1
- IC50 [2]: 1.6 µM

SMILES: COc1ccc(CCc2cc(=O)c3c(o2)[C@H](O)[C@H]2Oc4cc5oc(CCc6ccc(OC)cc6)cc(=O)c5cc4O[C@@H]3[C@H]2O)cc1
- IC50 [3]: 42.1 µM

SMILES: COc1ccc(CCc2cc(=O)c3c(O)c(O)ccc3o2)cc1O
- IC [4]: 0.31 µM

SMILES: O=C(CCc1ccccc1)O[C@@H]1c2oc(CCc3ccccc3)cc(=O)c2[C@H](O)[C@@H](O)[C@H]1O
- IC50 [5]: 15.1 µM
- IC50 [6]: 42.6 µM

SMILES: COc1ccc(CCc2cc(=O)c3cc(OC)c(OC)cc3o2)cc1
- IC [4]: 0.31 µM

SMILES: CO[C@@H]1c2c(oc(CCc3ccccc3)cc2=O)[C@H](O)[C@@H](O)[C@H]1O
- inhibition [7]: 17.5%

SMILES: COc1cc(C[C@@H](O)c2cc(=O)c3c(O)cc(O)cc3o2)ccc1O
- inhibition [1]: 56.1%

SMILES: COc1ccc(CCc2cc(=O)c3c(o2)[C@H]2O[C@H]2[C@@H](O)[C@H]3OC)cc1
- IC50 [8]: 156 µM

SMILES: COc1ccc(CCc2cc(=O)c3c(o2)[C@@H](O)[C@H](O)[C@H](O)[C@H]3OC)cc1
- inhibition [7]: 17.5%

SMILES: O=c1cc(CCc2ccccc2)oc2cc(O)c(O)cc12
- IC50 [9]: 5.76 µM
- IC50 [10]: 5.76 µM
- IC50 [3]: 5.76 µM

SMILES: COc1ccc(CCc2cc(=O)c3cc4c(cc3o2)O[C@H]2c3c(oc(CCc5ccccc5)cc3=O)[C@H](O)[C@@H](O4)[C@@H]2O)cc1
- IC50 [3]: 44.7 µM

SMILES: COc1ccc(CCc2cc(=O)c3c(o2)[C@H]2O[C@H]2[C@@H](O)[C@H]3OC)cc1O
- IC50 [8]: 442 µM

SMILES: O=c1cc(CCc2ccccc2)oc2c1[C@H](O)[C@@H](O)[C@H]1O[C@@H]21
- inhibition [7]: 17.5%

SMILES: COc1ccc(CCc2cc(=O)c3c(o2)[C@@H](Oc2cc(O)cc4c(=O)cc(CCc5ccccc5)oc24)[C@H](O)[C@H](O)[C@H]3O)cc1
- IC50 [5]: 7.9 µM

SMILES: COc1ccc(CCc2cc(=O)c3c(o2)[C@H](Cl)[C@@H](O)[C@@H](O)[C@H]3O)cc1
- IC50 [2]: 1.6 µM

SMILES: COc1ccc(CCc2cc(=O)c3c(O)ccc(OC)c3o2)cc1
- IC50 [11]: 220 µM

SMILES: COc1ccc(CCc2cc(=O)c3c(o2)[C@H]2O[C@H]2[C@@H](O)[C@@H]3O)cc1O
- inhibition [7]: 17.5%

SMILES: C/C1=C\CC/C(C(=O)O[C@@H]2c3oc(CCc4ccccc4)cc(=O)c3[C@H](O)[C@@H](O)[C@H]2O)=C/CC(C)(C)/C=C/C1
- IC50 [12]: 17.6 µM

SMILES: COc1ccc(CCc2cc(=O)c3cc(O)c(O)cc3o2)cc1
- IC50 [9]: 5.76 µM
- IC50 [10]: 5.76 µM
- IC50 [3]: 5.76 µM

SMILES: O=c1cc(CCc2ccccc2)oc2c1[C@H]1c3c(ccc4oc(CCc5ccccc5)cc(=O)c34)O[C@H]([C@H]1O)[C@@H]2O
- IC50 [9]: 10.9 µM
- IC50 [10]: 10.9 µM
- IC50 [13]: 10.9 µM
- IC50 [14]: 10.9 µM

SMILES: COc1cc2oc(CCc3ccccc3)cc(=O)c2cc1O
- IC [4]: 0.31 µM

SMILES: COc1ccc2c(=O)cc(CCc3ccccc3)oc2c1
- IC [4]: 0.31 µM

SMILES: COc1ccc(CCc2cc(=O)c3c(o2)[C@H]2O[C@H]2[C@@H](O)[C@@H]3O)cc1
- inhibition [7]: 17.5%

SMILES: COc1ccc(CCc2cc(=O)c3c(o2)[C@@H]2O[C@@H]2[C@@H]2O[C@H]32)cc1O
- inhibition [7]: 17.5%

SMILES: COc1ccc(CCc2cc(=O)c3c(o2)[C@H](Cl)[C@H](O)[C@H](O)[C@@H]3O)cc1
- IC50 [2]: 1.6 µM

SMILES: C=C(CO[C@H]1c2c(oc(CCc3ccc(OC)cc3)cc2=O)[C@H]2O[C@H]2[C@H]1O)[C@@H]1CC[C@]2(C)CCC[C@H](C)[C@@]2(C)C1
- IC50 [9]: 10.9 µM
- IC50 [10]: 10.9 µM
- IC50 [13]: 10.9 µM
- IC50 [14]: 10.9 µM

SMILES: COc1ccc(CCc2cc(=O)c3cc(O)c(O[C@@H]4c5oc(CCc6ccccc6)cc(=O)c5[C@H](O)[C@@H](O)[C@H]4O)cc3o2)cc1
- IC50 [5]: 4.3 µM

SMILES: O=c1cc(CCc2ccccc2)oc2c(O)ccc(O)c12
- IC50 [2]: 1.6 µM
- IC50 [11]: 220 µM

SMILES: O=c1cc(CCc2ccccc2)oc2c1[C@H](O)[C@H](O)[C@H](O)[C@H]2Cl
- IC50 [2]: 1.6 µM

SMILES: O=c1cc(CCc2ccc(O)cc2)oc2cc(O)cc(O)c12
- inhibition [1]: 56.1%

SMILES: CCCOC(=O)c1cc(O)c(O)c(O)c1
- inhibition [1]: 97.4%

SMILES: COc1ccc(CCc2cc(=O)c3cc(OC)c(O)cc3o2)cc1
- IC50 [11]: 220 µM

SMILES: O=c1cc(CCc2ccccc2)oc2c(O)cc(O)cc12
- IC50 [11]: 220 µM

SMILES: COc1ccc(CCc2cc(=O)c3cc(O)c(OC)cc3o2)cc1O
- IC50 [15]: 89 µM

SMILES: C=C(C)[C@H]1CC[C@@]2(C)CCC=C(C(=O)O[C@H]3c4oc(CCc5ccccc5)cc(=O)c4[C@@H](O)[C@H](O)[C@@H]3O)[C@H]2C1
- IC50 [12]: 17.6 µM

SMILES: COc1ccc(CCc2cc(=O)c3cc(O)c(OC)cc3o2)cc1
- IC50 [9]: 5.76 µM
- IC50 [10]: 5.76 µM
- IC50 [3]: 5.76 µM

SMILES: COc1ccc(CCc2cc(=O)c3cc(O)cc(O)c3o2)cc1
- IC50 [15]: 51.5 µM

SMILES: C=C(C)[C@H]1CC[C@@]2(C)CCCC(C(=O)O[C@H]3c4oc(CCc5ccccc5)cc(=O)c4[C@@H](O)[C@H](O)[C@@H]3O)=C2C1
- IC50 [12]: 17.6 µM

SMILES: O=c1cc(CCc2ccccc2)oc2c1[C@H](O)[C@@H](O)[C@@H](O)[C@@H]2Oc1cc2oc(CCc3ccccc3)cc(=O)c2cc1O
- IC50 [5]: 4.2 µM

SMILES: O=c1cc(CCc2ccccc2)oc2c1[C@@H]1c3c(ccc4oc(CCc5ccccc5)cc(=O)c34)O[C@@H]([C@@H]1O)[C@H]2O
- IC50 [9]: 10.9 µM
- IC50 [10]: 10.9 µM
- IC50 [13]: 10.9 µM
- IC50 [14]: 10.9 µM

SMILES: C=C(CO[C@H]1c2c(oc(CCc3ccccc3)cc2=O)[C@H]2O[C@H]2[C@H]1O)[C@@H]1CC[C@@]2(O)CCCC[C@@]2(C)C1
- IC50 [9]: 10.9 µM
- IC50 [10]: 10.9 µM
- IC50 [13]: 10.9 µM
- IC50 [14]: 10.9 µM

SMILES: O=c1cc(CCc2ccc(O)cc2)oc2cc(OC3O[C@H](CO)[C@@H](O)[C@H](O)[C@H]3O)cc(O)c12 (stereo partly drawn)
- inhibition [1]: 56.1%
